Key:
[1] = system: UACC-62; assay: Growth inhibition of human UACC62 cells assessed as cell viability at 0.1 uM incubated for 48 hrs by sulforhodamine B assay; type: functional; conditions: UACC-62, 48 h, read-out: Activity
[2] = system: SK-MEL-5; assay: Growth inhibition of human SK-MEL-5 cells assessed as cell viability at 1 uM incubated for 48 hrs by sulforhodamine B assay; type: functional; conditions: SK-MEL-5, 48 h, read-out: Activity

## CC1=C(C(=O)OCc2ccccc2)C(c2ccc3c(c2)OCO3)n2c(nc3ccccc32)N1 (racemic)
[1]
  viability at 0.1 µM: 80%
[2]
  viability at 1 µM: 32%
